Test results from ChEMBL document CHEMBL3714753, “Substituted tetrahydroquinolines, phenylacetic acids and benzoic acids as hepatocyte nuclear factor 4 (hnf-4 ) modulator compounds” (2005).

Columns and labels:
[1] = biological target: T1, Hepatocyte nuclear factor 4-alpha (Rattus norvegicus, UniProt P22449); test: Agonist activity at rat HNF4alpha1 expressed in African green monkey CV1 cells incubated for 24 hrs by firefly luciferase reporter gene assay; format: functional, cell-based, CV-1
T1 sequence (P22449 whole entry): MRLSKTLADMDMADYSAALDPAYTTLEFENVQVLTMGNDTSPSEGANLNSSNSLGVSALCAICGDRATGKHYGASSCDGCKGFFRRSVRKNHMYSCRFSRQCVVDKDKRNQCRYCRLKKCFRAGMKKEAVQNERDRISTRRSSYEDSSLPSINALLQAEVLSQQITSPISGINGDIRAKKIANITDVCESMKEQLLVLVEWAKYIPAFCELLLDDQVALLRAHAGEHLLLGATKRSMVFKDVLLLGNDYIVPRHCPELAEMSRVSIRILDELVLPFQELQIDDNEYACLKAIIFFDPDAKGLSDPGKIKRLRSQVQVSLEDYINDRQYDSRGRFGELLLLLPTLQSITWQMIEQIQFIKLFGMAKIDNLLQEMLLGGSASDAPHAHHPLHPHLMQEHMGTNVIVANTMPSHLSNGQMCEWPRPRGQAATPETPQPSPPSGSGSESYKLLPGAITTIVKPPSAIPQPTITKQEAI

[2] = biological target: T2, Hepatocyte nuclear factor 4-alpha (Homo sapiens, UniProt P41235); test: Displacement of radiolabeled methyl-4-[5,6,7,8-tetrahydro-5,5,8,8-tetramethyl-3-ethyloxy-2-naphthalenyl]benzoyl benzoate from HNF4alpha (unknown origin)
T2 sequence (P41235 whole entry): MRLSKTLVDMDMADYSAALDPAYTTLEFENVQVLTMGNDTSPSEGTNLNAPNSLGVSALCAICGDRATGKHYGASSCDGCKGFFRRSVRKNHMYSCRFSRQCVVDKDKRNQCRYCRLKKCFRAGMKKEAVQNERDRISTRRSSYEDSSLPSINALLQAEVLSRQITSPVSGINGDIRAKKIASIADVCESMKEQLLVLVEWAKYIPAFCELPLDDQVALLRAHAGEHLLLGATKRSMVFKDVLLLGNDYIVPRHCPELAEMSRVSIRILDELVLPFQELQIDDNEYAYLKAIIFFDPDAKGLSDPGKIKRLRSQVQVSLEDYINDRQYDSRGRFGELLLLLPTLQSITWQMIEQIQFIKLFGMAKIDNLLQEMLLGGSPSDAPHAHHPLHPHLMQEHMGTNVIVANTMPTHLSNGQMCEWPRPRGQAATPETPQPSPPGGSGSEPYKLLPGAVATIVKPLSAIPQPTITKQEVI

[3] = biological target: T3, Hepatocyte nuclear factor 4-alpha (Rattus norvegicus) (UniProt P22449); test: Agonist activity at rat HNF4alpha1 expressed in African green monkey CV1 cells incubated for 24 hrs by firefly luciferase reporter gene assay relative to LGOI00695; format: functional, cell-based; conditions: CV-1
T3 sequence (whole entry): T1 sequence (P22449 whole entry)

[4] = biological target: T1, Hepatocyte nuclear factor 4-alpha; test: Antagonist activity against rat HNF4alpha1 expressed in African green monkey CV1 cells assessed as inhibition of LGOI00695-induced receptor activation incubated for 24 hrs by firefly luciferase reporter gene assay; format: functional, cell-based, CV-1
[5] = biological target: T3, Hepatocyte nuclear factor 4-alpha (Rattus norvegicus); test: Antagonist activity against rat HNF4alpha1 expressed in African green monkey CV1 cells assessed as inhibition of LGOI00695-induced receptor activation incubated for 24 hrs by firefly luciferase reporter gene assay relative to control; format: functional, cell-based; conditions: CV-1

SMILES | EC50 [1] | Ki [2] | Efficacy [3] | IC50 [4] | Efficacy [5]
O=C(O)c1ccc(C2Nc3ccc4ccccc4c3[C@H]3OCC[C@@H]23)cc1 (relative stereo) | 0.778 µM | 1.07 µM | 42% | – | –
O=C(O)c1ccc(C2Nc3ccc4ccccc4c3[C@H]3OCCC[C@@H]23)cc1 (relative stereo) | – | 2.17 µM | – | 0.3 µM | 69%
Cc1cc2c(cc1C)[C@H]1OCCC[C@H]1[C@@H](c1ccc(C(=O)O)cc1)N2 (relative stereo) | 1.73 µM | 0.135 µM | 60% | – | –
O=C(O)Cc1ccc([C@H]2Nc3ccccc3[C@H]3OCCC[C@@H]23)cc1 (relative stereo) | 0.649 µM | 0.219 µM | 134% | – | –
COC(=O)c1ccc([C@H]2Nc3ccccc3[C@H]3OCCC[C@@H]23)cc1 (relative stereo) | 0.426 µM | 0.234 µM | 165% | – | –
